Test results: US12679837B2, “Aminopyrimidine compound as CDK2/4/6 triple inhibitor” (CISEN PHARMACEUTICAL CO., LTD, priority 2019, dated 2026)

Tested on: HCT116 cells
Test: HCT116 cell activity test (CellTiter-Glo)
Assay type: cell-based
Conditions: Homo sapiens, HCT-116, 96 h, 4 days, read-out: Antiproliferative activity (IC50) HCT 116
Description: Experimental materials: McCoy' 5a medium, fetal bovine serum, and penicillin/streptomycin antibiotics were purchased from Vicente. CellTiter-Glo (chemiluminescence detection reagent for cell viability) reagent was purchased from Promega. The HCT116 cell line was purchased from Cobioer Biosciences Co., Ltd. Nivo Multilabel Analyzer (PerkinElmer).
Experimental method: HCT116 cells were seeded in a white 96-well plate, 80 μL of cell suspension per well, which contained 1000 HCT116 cells. The cell plate was incubated overnight in a carbon dioxide incubator. The compounds to be tested were diluted 5-fold to the 9th concentration with a row gun, that is, from 2 mM to 5.12 nM, and a double-replicate well experiment was set up. 78 μL of medium was added to the middle plate, and then transferred 2 μL per well of the gradient diluted compound to the middle plate according to the corresponding position, mixed well and transferred 20 μL per well to the cell plate. […] Another cell plate was prepared, and the signal value was read as the maximum value (Max value in the equation below) on the day of drug addition to participate in data analysis. 25 μL of chemiluminescence detection reagent for cell viability was added to each well of the cell plate, and incubated at room temperature for 10 minutes to stabilize the luminescence signal. A multi-label analyzer was used for reading. […]

IC50: 70 nM
SMILES: C[C@@]1(O)CCC[C@H]1N1C(=O)CCc2cnc(NC3CCN(S(C)(=O)=O)CC3)nc21 [Compound 1A]
